For one data set, the target named is T1, integrin αvβ8 (Homo sapiens, UniProt P06756+P26012).
T1 construct: expressed in transfected cells
In words: integrin αvβ8-mediated attachment of transfected HEK-293 cells to LAP. Type of data set: cell-based. As to conditions: mean and SD, at least 3 independent assays; transfected HEK-293, LAP ligand; read-out: IC50, inhibition of αvβ8-mediated cell attachment. As to the method:
(§1) The RGD peptidomimetic CWHM‐12 was synthesized as described in detail previously (Henderson et al., 2013). A close structural analog of this compound with improved oral bioavailability, CWHM‐680, was also synthesized at Saint Louis University. Potency for the compounds in blocking cell attachment mediated by integrins αvβ3, αvβ5, and αvβ6 was measured as previously described (Henderson et al., 2013). Potency for blocking cell attachment mediated by integrins αvβ1, αvβ8, and α8β1 was measured using modifications of this method which are briefly summarized as follows: To assess CWHM‐12 and CWHM‐680 effects on cellular αvβ1 function, we varied its concentration in an assay measuring binding of HEK‐293 cells, which naturally express this integrin (Nagarajan et al., 2007), to the surface of 96‐well plates coated with purified recombinant human TGFβ‐1 latency‐associated peptide (R&D Systems). To assess the effect on cellular αvβ8 function, we performed the assay with the same LAP ligand but with HEK‐293 cells which had been stably transfected to overexpress this integrin. To assess the effect on cellular α8β1 function, we performed the assay using HEK‐293 cells, which had been stably transfected to overexpress this integrin and used purified recombinant mouse nephronectin as the immobilized ligand (R&D Systems). […]

Another data set concerns integrin αIIbβ3. Also noted: method as in Henderson et al., 2013. As to conditions: no significant activity; ref Henderson et al., 2013; read-out: activity against integrin αIIbβ3; cited from earlier work.
For the next data set, the target named is integrin αvβ6 (Homo sapiens, UniProt P06756+P18564). In words: integrin αvβ6-mediated cell attachment to ligand. Type of data set: cell-based. The following applies: mean and SD, at least 3 independent assays, read-out: IC50, inhibition of αvβ6-mediated cell attachment. The procedure:
as §1

A further data set addresses T2, integrin α5β1 (Homo sapiens, UniProt P05556+P08648).
T2 construct: K562 cells, which naturally express this integrin; endogenous in cells; host or cells: K562
In words: integrin α5β1-mediated attachment of K562 cells to human plasma fibronectin. In kind it is cell-based. The following applies: mean and SD, at least 3 independent assays, read-out: IC50, inhibition of α5β1-mediated cell attachment.

The target in a further data set is integrin αvβ5 (Homo sapiens, UniProt P06756+P18084). In words: integrin αvβ5-mediated cell attachment to ligand. Type of data set: cell-based. The following applies: mean and SD, at least 3 independent assays; read-out: IC50, inhibition of αvβ5-mediated cell attachment. The procedure:
as §1

The test system of data set [1] is Collagen 1 protein in kidney. In words: aristolochic acid kidney injury model, Collagen 1 Western blot. In kind it is in vivo, mouse. As to conditions: AA-injured, 100 mg/kg/day s.c. minipump. The procedure:
Alzet osmotic minipumps (Cupertino, CA) were implanted subcutaneously in 8‐ to 10‐week‐old wild‐type male ICR outbred mice (Envigo) one day prior to induction of kidney injury to deliver vehicle (DMSO/H2O 1:1) or CWHM‐12 at a dose of 100 mg/kg per day. A single 5 mg/kg dose of aristolochic acid I sodium salt (Sigma‐Aldrich, A9451) in PBS was administered intraperitoneally to induce kidney injury, and mice were monitored daily for 27 days thereafter. Control (uninjured) mice were injected with an equal volume of PBS. Blood was obtained by maxillary vein puncture on days 0, 5 (peak injury), and 28 (study endpoint). For testing CWHM‐680, oral gavage (100 mg/kg per day) was started one day prior to injection of aristolochic acid I sodium salt and continued once daily until the study endpoint. Blood was obtained at days 0, 7, and 23 (study endpoint). […] Serum creatinine was measured by liquid chromatography–mass spectrometry (LC–MS/MS) at the University of Alabama O’Brien Center Bioanalytical Core. CWHM‐12 and CWHM‐680 concentrations were measured in plasma samples by liquid chromatography–tandem mass spectrometry (LC/MS/MS) using compound spiked into control plasma as a standard. All experiments were performed under protocols approved by the Institutional Animal Care and Use Committee at St. Louis University. […]

A further data set has as its target T3, integrin α8β1 (Homo sapiens, UniProt P05556+P53708).
T3 construct: expressed in transfected cells
In words: integrin α8β1-mediated attachment of transfected HEK-293 cells to mouse nephronectin. Type of data set: cell-based. As to conditions: mean and SD, at least 3 independent assays; transfected HEK-293, nephronectin; read-out: IC50, inhibition of α8β1-mediated cell attachment. The procedure:
as §1

Data set [2] can be described thus: plasma compound concentration by LC/MS/MS. Type of data set: in vivo, mouse. As to conditions: 100 mg/kg per day s.c. by Alzet minipump. As to the method:
Alzet osmotic minipumps (Cupertino, CA) were implanted subcutaneously in 8‐ to 10‐week‐old wild‐type male ICR outbred mice (Envigo) one day prior to induction of kidney injury to deliver vehicle (DMSO/H2O 1:1) or CWHM‐12 at a dose of 100 mg/kg per day. A single 5 mg/kg dose of aristolochic acid I sodium salt (Sigma‐Aldrich, A9451) in PBS was administered intraperitoneally to induce kidney injury, and mice were monitored daily for 27 days thereafter. Control (uninjured) mice were injected with an equal volume of PBS. Blood was obtained by maxillary vein puncture on days 0, 5 (peak injury), and 28 (study endpoint). For testing CWHM‐680, oral gavage (100 mg/kg per day) was started one day prior to injection of aristolochic acid I sodium salt and continued once daily until the study endpoint. Blood was obtained at days 0, 7, and 23 (study endpoint). […] Serum creatinine was measured by liquid chromatography–mass spectrometry (LC–MS/MS) at the University of Alabama O’Brien Center Bioanalytical Core. CWHM‐12 and CWHM‐680 concentrations were measured in plasma samples by liquid chromatography–tandem mass spectrometry (LC/MS/MS) using compound spiked into control plasma as a standard. All experiments were performed under protocols approved by the Institutional Animal Care and Use Committee at St. Louis University.

Data set [3] concerns non‐RGD‐binding integrins. Also on record: method as in Henderson et al., 2013. As to conditions: ref Henderson et al., 2013; cited from earlier work.

Like-named read-outs stand apart in the source and are kept apart here.

Sequence of integrin αvβ6 (P06756 31-889 limits assumed): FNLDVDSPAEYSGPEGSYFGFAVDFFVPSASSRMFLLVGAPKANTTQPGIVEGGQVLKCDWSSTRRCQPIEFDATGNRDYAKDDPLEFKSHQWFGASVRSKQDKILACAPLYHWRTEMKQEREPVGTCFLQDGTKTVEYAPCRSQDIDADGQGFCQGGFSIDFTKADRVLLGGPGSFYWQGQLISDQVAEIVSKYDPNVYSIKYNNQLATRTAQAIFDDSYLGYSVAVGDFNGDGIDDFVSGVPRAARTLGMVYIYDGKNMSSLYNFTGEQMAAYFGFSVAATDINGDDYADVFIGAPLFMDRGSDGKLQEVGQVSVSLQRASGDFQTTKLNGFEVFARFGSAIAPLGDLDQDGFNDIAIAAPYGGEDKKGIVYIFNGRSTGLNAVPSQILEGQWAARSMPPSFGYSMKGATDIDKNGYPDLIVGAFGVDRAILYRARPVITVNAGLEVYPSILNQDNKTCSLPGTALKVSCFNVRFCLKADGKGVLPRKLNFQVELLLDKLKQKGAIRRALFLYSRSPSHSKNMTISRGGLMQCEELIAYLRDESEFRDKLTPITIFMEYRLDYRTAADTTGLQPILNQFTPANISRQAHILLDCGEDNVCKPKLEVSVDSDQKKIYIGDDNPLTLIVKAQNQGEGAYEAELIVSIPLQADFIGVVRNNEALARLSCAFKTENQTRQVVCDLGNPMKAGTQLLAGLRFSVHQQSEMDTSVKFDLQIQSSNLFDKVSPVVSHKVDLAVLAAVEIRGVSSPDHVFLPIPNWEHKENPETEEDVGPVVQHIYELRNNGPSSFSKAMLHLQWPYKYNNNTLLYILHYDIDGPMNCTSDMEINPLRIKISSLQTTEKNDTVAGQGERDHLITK
Sequence of integrin αvβ6 (P06756 891-1048 partner limits assumed): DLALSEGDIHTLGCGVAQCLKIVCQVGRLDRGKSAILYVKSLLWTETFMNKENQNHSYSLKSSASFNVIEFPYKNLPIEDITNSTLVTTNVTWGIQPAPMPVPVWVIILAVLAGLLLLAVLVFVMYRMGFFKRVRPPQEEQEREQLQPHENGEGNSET
Sequence of integrin αvβ6 (P18564 22-788): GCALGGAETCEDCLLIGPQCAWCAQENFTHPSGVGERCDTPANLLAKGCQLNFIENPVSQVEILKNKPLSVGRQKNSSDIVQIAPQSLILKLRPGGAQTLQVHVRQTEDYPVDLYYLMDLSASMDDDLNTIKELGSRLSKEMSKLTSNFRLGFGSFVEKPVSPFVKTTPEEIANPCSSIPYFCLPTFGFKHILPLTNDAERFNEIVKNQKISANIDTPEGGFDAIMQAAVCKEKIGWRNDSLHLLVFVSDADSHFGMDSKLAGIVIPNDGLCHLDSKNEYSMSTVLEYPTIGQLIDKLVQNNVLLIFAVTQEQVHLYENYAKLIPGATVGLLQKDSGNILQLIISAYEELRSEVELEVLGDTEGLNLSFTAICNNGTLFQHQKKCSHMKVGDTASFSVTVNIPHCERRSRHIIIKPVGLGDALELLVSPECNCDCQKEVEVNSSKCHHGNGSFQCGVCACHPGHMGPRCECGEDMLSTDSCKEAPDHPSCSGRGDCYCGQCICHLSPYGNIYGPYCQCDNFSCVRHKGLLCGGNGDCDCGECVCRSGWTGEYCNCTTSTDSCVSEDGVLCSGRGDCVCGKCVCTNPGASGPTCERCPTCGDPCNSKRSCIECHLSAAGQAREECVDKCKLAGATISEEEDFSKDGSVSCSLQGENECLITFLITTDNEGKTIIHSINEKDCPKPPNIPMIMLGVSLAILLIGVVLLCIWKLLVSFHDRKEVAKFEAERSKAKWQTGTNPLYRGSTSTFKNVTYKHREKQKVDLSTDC
T1 sequence (P06756 31-889 limits assumed): as the sequence (P06756 31-889 limits assumed) above
T1 sequence (P06756 891-1048 partner limits assumed): as the sequence (P06756 891-1048 partner limits assumed) above
T1 sequence (P26012 43-769): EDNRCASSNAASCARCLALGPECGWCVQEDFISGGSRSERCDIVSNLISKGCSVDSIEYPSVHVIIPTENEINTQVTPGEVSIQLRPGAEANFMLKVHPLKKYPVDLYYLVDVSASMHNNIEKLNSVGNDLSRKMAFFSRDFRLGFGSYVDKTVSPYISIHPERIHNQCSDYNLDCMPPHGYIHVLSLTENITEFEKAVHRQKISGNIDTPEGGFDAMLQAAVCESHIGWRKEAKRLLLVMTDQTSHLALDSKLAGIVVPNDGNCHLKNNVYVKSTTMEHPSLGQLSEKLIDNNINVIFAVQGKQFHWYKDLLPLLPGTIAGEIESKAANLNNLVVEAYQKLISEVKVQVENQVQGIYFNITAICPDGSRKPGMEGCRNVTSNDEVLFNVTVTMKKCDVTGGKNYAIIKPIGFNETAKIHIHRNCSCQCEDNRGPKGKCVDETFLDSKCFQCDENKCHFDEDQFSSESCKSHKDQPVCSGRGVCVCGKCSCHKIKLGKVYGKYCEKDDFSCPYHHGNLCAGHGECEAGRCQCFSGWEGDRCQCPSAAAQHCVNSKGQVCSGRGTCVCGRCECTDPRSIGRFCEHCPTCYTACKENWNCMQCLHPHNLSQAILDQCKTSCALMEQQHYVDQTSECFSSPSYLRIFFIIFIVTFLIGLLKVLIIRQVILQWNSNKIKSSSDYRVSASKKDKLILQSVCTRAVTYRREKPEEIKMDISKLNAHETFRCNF
Sequence of integrin αvβ5 (P06756 31-889 limits assumed): as the sequence (P06756 31-889 limits assumed) above
Sequence of integrin αvβ5 (P06756 891-1048 partner limits assumed): as the sequence (P06756 891-1048 partner limits assumed) above
Sequence of integrin αvβ5 (P18084 24-799): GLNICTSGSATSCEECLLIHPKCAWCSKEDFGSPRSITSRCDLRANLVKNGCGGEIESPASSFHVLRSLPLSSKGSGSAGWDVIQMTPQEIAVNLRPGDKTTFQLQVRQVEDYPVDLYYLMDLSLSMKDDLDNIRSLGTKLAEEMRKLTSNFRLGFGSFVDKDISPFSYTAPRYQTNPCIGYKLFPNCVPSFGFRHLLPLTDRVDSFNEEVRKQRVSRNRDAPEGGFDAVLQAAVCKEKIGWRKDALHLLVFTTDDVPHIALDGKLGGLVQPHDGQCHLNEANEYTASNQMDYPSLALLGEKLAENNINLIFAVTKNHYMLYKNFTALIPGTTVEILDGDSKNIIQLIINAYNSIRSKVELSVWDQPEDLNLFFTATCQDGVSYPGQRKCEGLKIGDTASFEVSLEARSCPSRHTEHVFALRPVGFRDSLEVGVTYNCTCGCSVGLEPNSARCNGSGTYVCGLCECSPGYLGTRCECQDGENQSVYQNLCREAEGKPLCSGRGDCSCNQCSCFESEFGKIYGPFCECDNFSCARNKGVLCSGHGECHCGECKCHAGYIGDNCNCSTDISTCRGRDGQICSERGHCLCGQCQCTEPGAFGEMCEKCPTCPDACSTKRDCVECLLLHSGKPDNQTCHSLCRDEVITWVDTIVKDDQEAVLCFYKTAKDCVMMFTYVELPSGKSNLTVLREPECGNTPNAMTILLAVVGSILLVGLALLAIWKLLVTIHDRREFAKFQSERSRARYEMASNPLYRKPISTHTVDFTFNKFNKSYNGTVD

On to `CC(C)(C)c1cc(Br)cc([C@H](CC(=O)O)NC(=O)CNC(=O)c2cc(O)cc(NC3=NCC(O)CN3)c2)c1` (some centres unmarked) [CWHM‐12], for which the IC50 was 5.8 ± 2.3 nM at integrin αvβ8; > 5000 nM in the data set on integrin αIIbβ3; 0.31 ± 0.14 nM at integrin αvβ6 (listed as CWHM−12); < 1 nM on integrin αvβ6; 8 ± 3.9 nM on integrin α5β1; 47 ± 26 nM on integrin αvβ5. Moreover, the IC50 on integrin α8β1 turned out to be 35 ± 16 nM. For the same molecule, the “Collagen 1 protein reduction by Western blot compared with vehicle” value in data set [1] (day 27) was “threefold”. Moreover, the “Collagen 1 densitometry normalized to HDAC2” value in data set [1] (vehicle 2.14 ± 0.39) is recorded as 0.719 ± 0.13 arbitrary units. Also, the “mean steady plasma drug concentration” value in [2] is given as “approximately 5 µg/ml”. The “effect on ligand binding by non‐RGD‐binding integrins” value in data set [3] was “nor does it affect ligand binding”.

(Values after PMC7153038, “Pharmacologic inhibition of RGD‐binding integrins ameliorates fibrosis and improves function following kidney injury” (Physiological Reports, 2020).)
